Common to all, as to format: cell-based, human
One assay concerns SMAD4. Kind of assay: RT-qPCR of SMAD4 mRNA in olfactory neurospheres treated with SB, LDN and TRIM. To be noted: ONS cells. The method, then: Primary olfactory cells were dissociated into single cells and seeded onto Poly L-Lysine (Sigma) coated tissue culture dishes at 20,000 cells/cm^2 in sphering media, which consists of DMEM+1×ITS+[…]. Cells were then incubated at 37° C. with 5% CO2 until neurospheres started to form. This normally takes 2-3 days. Small neurospheres (<200 μm in diameter) were manually picked under a dissecting microscope (Leica) and collected for differentiation.
For olfactory neurosphere differentiation experiments, cells were cultured in ONS differentiation media, which consists of neural basal media+1×B27+1×L-glutamine+pen/strep+1×β-mercaptoethanol+AA+BDNF supplemented with combinations of SB, LDN and TRIM. Cells were differentiated for 3-4 days before collected for analysis. Media was changed on the second day.
RT-qPCR was performed on cDNA samples with a Rotor-Gene 6000 (Corbett) using SYBER green based assays (Qiagen). All samples were normalized to GAPDH and the relative expression of each gene was determined using the delta-delta CT method. The primer sequences used are as follows:
The ability for ONS to respond to the treatments of SB, LDN and TRIM was tested. QPCR was performed according to the methods described in the foregoing examples.
In general terms: Quantitative PCR measures a nucleic acid by following its amplification.

The subject of assay [1] is olfactory neurospheres (ONS). Kind of assay: Olfactory neurosphere (ONS) neuronal differentiation, immunostaining and morphology. The following applies: added to ONS differentiation media, 3-4 days.
Procedure: Cells were fixed in 4% paraformaldehyde for 20 min and then blocked for 2 h at room temperature before incubated with the appropriate primary antibodies overnight at 4° C. The following primary antibodies were used: mouse β-III-tubulin (Sigma, 1:500), mouse N-cam (Dako, 1:100), mouse GFAP (Merk, 1:500), chicken Sox1 (Merk, 1:500), rabbit Nestin (Merk, 1:500), rabbit Neurofilament-Light (Merk, 1:500), rabbit Synapsin (Calbiochem, 1:500) and sheep Olfactory Marker Protein (Abcam, 1:500). Appropriate secondary antibodies were added and incubated for lh before samples were washed and mounted using Prolong Gold (Invitrogen) and analyzed using either a fluorescent microscope (Nikon) or a confocal microscope (Leica). All secondary antibodies were from Molecular Probes and diluted at 1:1000, except for anti-sheep secondary antibody, which was from Dako and diluted at 1:500.
Primary olfactory cells were dissociated into single cells and seeded onto Poly L-Lysine (Sigma) coated tissue culture dishes at 20,000 cells/cm^2 in sphering media, which consists of DMEM+1×ITS+50 μg/mL EGF+25 μg/mL FGF2. Cells were then incubated at 37° C. with 5% CO2 until neurospheres started to form. This normally takes 2-3 days. Small neurospheres (<200 μm in diameter) were manually picked under a dissecting microscope (Leica) and collected for differentiation. […]
In a further assay the test system is olfactory primary cells. Kind of assay: Olfactory primary cell culture differentiation, β-III-tubulin immunostaining. To be noted: 100 μM TRIM added, in all conditions, 4-7 days.

In the case of `Cl.c1ccc2c(-c3cnn4cc(-c5ccc(N6CCNCC6)cc5)cnc34)ccnc2c1` [LDN193189, 4-(6-(4-(piperazin-1-yl)phenyl)pyrazolo[1,5-a]pyrimidin-3-yl)quinolone hydrochloride], in the assay with SMAD4 (compared to cells cultured in the absence of inhibitors), the “level of inhibition of SMAD4” value is 80%. Further, the neurite morphology entry in assay [1] is “short neurites”.

On to `NC(=O)c1ccc(-c2nc(-c3ccc4c(c3)OCO4)c(-c3ccccn3)[nH]2)cc1` [SB431542, 4-[4-(1,3-benzodioxol-5-yl)-5-(2-pyridinyl)-1H-imidazol-2-yl]benzamide], for which the “mRNA level / expression of SMAD4” value in the assay on SMAD4 (compared to cells cultured without inhibitors) is reported as “no change”. In addition, the neurite morphology entry in assay [1] is on record as “short neurites”.

For the molecule `FC(F)(F)c1ccccc1-n1ccnc1` [TRIM, 1-(2-Trifluoromethylphenyl) Imidazole], the “β-III-tubulin positive cells on addition of NOS inhibitor” value with olfactory primary cells is “further increase in β-III-tubulin positive cells”.

The values above are taken from patent US20180161376A1, “COMPOSITIONS AND METHODS FOR NEURONAL DIFFERENTIATION OF CELLS” (Northern Sydney Local Health District, priority 2014, published 2018).
